Earlier results in patent US6713504B2, “Antifungal molecule 2-(3,4-dimethyl-2,5-dihydro-1H-pyrrol-2-yl)-1-methylethyl pentanoate” (Council of Scientific & Industrial Research, priority 2002, dated 2004).

Conditions: amphotericin B and its liposomal derivatives; reported by Zager 2000; cited from earlier work

For `C[C@@H]1[C@H](O)[C@@H](C)/C=C/C=C/C=C/C=C/C=C/C=C/C=C/[C@H](O[C@@H]2O[C@H](C)[C@@H](O)[C@H](N)[C@@H]2O)C[C@@H]2O[C@](O)(C[C@@H](O)C[C@@H](O)[C@H](O)CC[C@@H](O)C[C@@H](O)CC(=O)O[C@H]1C)C[C@H](O)[C@H]2C(=O)O` [amphotericin B], the CT50 is listed as 4.0 to 64.0 µg/mL.
